Tests used:
purified IIb-IIIa [1] = biological target: T1, purified IIb-IIIa (Homo sapiens, UniProt P05106+P08514); assay: Surface Plasmon Resonance, real-time dissociation of ligands from IIb-IIIa; assay type: binding; conditions: fibrinogen immobilized on sensor chip, without 52012 (FIG. 4B)
Procedure: FIGS. 4A and 4B. Measuring the ability of 52012 to dissociate fibrinogen and Fab-9 from IIb-IIIa in real time. Studies were performed with Surface Plasmon Resonance to examine the ability of 52012 to induce the dissociation of ligands from IIb-IIIa. Fab-9 (FIG. 4A) or fibrinogen (FIG. 4B) were immobilized on the sensor chip and then allowed to bind to purified IIb-IIIa. At a specific time, 52012 was introduced by injection into the flow cell.
In one embodiment, ILDs can be identified by the ability to increase the rate of dissociation between an integrin and its natural ligand, or a known mimic of its natural ligand, with Surface Plasmon Resonance (SPR), for example, using the BIACORE Surface Plasmon Resonance™ instrument. SPR is a technique that measures ligand association and dissociation in "real time." To screen for an ILD using plasmon resonance, the following steps would be taken:
It is important to note that the configuration of the assay could take several different forms. For example, rather than immobilizing the integrin on the sensor chip, one could immobilize the ligand. In such case, the integrin would be allowed to bind the immobilized ligand prior to measuring dissociation rates.
To verify the effect of RGD-type ligands on the dissociation of fibrinogen from IIB-IIIa, dissociation rates were measured in real time using Surface Plasmon Resonance (SPR).

purified IIb-IIIa [2] = biological target: T1, purified IIb-IIIa; assay: Competition binding to purified IIb-IIIa immobilized in microtiter plates; conditions: 125I-Fab-9 challenged with unlabeled fibrinogen (FIG. 1B)
Procedure: FIGS. 1A and 1B. Fibrinogen and Fab-9 bind distinct sites on IIb-IIIa. Studies were conducted with purified IIb-IIIa to determine whether Fab-9 (an RGD mimic) and fibrinogen bind to the same site on the integrin. IIb-IIIa was immobilized in microtiter plates and was allowed to bind either ^125 I-fibrinogen (FIG. 1A) or to ^125 I-Fab-9 (FIG. 1B). The binding of ^125 I-fibrinogen was challenged with unlabeled Fab-9. Similarly, the binding of ^125 I-Fab-9 was challenged with unlabeled fibrinogen.
To determine if fibrinogen and Fab-9 actually bind the same site on IIb-IIIa, a series of competition binding studies were carried out. The ability of the two ligands to compete for binding to IIB-IIIa was measured. Fab-9 blocked the binding of fibrinogen to IIB-IIIa (FIG. 1A). […] These sites are designated as Site I, which binds to Fab-9 and Site II, which interacts with fibrinogen (FIG. 2).

T1 sequence (P08514 32-887 limits assumed): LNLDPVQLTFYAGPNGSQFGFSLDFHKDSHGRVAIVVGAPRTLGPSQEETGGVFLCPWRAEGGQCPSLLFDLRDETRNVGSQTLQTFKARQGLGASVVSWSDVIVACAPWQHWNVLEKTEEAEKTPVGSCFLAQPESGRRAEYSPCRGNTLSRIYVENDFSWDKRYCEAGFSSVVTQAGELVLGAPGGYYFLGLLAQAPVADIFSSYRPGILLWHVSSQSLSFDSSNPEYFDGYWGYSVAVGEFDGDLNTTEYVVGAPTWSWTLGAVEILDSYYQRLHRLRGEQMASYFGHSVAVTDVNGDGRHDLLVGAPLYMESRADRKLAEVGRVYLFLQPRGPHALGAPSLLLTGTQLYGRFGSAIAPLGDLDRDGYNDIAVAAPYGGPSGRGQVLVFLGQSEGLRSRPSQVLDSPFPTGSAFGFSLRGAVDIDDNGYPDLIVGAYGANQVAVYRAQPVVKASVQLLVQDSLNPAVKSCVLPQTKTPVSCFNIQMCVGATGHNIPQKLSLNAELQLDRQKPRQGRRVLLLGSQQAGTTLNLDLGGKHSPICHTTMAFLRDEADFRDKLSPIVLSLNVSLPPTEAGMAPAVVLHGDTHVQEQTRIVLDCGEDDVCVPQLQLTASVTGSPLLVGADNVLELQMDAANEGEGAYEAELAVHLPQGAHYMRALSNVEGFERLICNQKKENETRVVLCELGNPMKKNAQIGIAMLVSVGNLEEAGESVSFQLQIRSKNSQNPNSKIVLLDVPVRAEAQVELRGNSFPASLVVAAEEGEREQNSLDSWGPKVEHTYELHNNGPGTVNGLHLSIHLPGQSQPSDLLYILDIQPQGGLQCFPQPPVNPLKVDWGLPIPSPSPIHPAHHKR
T1 sequence (P08514 891-1039 limits assumed): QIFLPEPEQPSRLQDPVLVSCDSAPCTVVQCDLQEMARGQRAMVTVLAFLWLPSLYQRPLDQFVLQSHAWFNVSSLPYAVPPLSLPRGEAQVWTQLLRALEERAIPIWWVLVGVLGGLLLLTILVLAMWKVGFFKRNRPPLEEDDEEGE
T1 sequence (P05106 27-788): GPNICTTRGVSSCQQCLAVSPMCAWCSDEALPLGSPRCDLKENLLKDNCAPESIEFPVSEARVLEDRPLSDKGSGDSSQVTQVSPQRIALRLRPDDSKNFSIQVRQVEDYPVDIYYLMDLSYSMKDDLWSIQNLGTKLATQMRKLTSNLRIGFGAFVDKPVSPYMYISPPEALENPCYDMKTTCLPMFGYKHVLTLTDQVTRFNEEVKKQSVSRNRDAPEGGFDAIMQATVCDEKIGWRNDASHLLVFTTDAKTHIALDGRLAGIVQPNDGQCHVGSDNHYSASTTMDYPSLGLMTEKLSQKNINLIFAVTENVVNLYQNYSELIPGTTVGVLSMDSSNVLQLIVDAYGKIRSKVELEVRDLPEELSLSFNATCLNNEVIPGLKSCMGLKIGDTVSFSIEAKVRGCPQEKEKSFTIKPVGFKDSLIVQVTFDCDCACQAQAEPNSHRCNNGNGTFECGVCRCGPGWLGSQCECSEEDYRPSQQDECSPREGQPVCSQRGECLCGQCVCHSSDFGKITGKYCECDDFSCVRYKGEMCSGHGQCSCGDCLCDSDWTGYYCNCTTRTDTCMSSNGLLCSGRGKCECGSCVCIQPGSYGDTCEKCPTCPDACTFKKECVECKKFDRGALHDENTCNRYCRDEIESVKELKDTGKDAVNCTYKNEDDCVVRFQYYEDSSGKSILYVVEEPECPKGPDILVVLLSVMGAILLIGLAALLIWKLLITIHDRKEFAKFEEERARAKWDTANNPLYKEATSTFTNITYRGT

- off-rate of fibrinogen from IIb-IIIa before 52012 (purified IIb-IIIa [1]): 6e-05 s⁻¹
- blocking of binding of 125I-Fab-9 to IIb-IIIa (purified IIb-IIIa [2]): failed to block
Substance: fibrinogen

From patent publication US6184206A, “Integrin ligand dissociators” (The Burnham Institute, priority 1998, dated 2001)
